{
  "source": "patent US9592210B2",
  "about": "“1-phenylalkanecarboxylic acid derivatives for the treatment of cognitive impairment” (Chiesi Farmaceutici S.p.A., priority 2011, dated 2017)",
  "key": {"[1]": {"system": "AD patients", "conditions": "cited from earlier work"}, "[2]": {"system": "γ-secretase", "conditions": "cited from earlier work"}, "[3]": {"system": "dendritic spine density", "conditions": "mice; cited from earlier work"}, "[4]": {"system": "human neuroglioma cells over-expressing the Swedish mutated APP (H4swe)", "conditions": "read-out: IC50 for lowering Aβ42 secretion; cited from earlier work"}, "[5]": {"conditions": "dogs, cited from earlier work"}, "[6]": {"system": "NICD-responsive genes", "conditions": "100 μM; cited from earlier work"}, "[7]": {"test": "Fear conditioning (preclinical)", "format": "in vivo", "conditions": "preclinical studies"}, "[8]": {"system": "transgenic mouse models of AD", "conditions": "cited from earlier work"}, "[9]": {"target": "T1, COX-2 (Homo sapiens, UniProt P35354)", "T1 sequence (P35354 18-604)": "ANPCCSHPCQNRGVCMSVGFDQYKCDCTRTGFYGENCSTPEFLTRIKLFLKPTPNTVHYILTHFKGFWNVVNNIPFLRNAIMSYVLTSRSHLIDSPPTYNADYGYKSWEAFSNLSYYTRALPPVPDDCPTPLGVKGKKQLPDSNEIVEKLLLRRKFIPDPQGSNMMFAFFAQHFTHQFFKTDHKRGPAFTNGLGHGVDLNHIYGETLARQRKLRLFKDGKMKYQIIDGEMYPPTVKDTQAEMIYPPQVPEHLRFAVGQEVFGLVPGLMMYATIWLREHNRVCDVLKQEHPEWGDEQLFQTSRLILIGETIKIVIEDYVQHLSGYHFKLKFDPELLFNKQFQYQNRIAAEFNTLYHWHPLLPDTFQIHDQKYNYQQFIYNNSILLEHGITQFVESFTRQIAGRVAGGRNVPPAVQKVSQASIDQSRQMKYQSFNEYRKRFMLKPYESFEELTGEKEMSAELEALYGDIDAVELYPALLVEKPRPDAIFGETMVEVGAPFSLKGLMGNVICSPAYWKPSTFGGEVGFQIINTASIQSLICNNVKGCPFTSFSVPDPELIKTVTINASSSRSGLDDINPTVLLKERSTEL", "conditions": "concentrations up to 300 μM; cited from earlier work"}, "[10]": {"system": "Notch intracellular cleavage in human embryonic kidney 293 swe cells", "conditions": "5 μM; cited from earlier work"}, "[11]": {"target": "COX-1 (Homo sapiens, UniProt P23219)", "sequence (P23219 24-599)": "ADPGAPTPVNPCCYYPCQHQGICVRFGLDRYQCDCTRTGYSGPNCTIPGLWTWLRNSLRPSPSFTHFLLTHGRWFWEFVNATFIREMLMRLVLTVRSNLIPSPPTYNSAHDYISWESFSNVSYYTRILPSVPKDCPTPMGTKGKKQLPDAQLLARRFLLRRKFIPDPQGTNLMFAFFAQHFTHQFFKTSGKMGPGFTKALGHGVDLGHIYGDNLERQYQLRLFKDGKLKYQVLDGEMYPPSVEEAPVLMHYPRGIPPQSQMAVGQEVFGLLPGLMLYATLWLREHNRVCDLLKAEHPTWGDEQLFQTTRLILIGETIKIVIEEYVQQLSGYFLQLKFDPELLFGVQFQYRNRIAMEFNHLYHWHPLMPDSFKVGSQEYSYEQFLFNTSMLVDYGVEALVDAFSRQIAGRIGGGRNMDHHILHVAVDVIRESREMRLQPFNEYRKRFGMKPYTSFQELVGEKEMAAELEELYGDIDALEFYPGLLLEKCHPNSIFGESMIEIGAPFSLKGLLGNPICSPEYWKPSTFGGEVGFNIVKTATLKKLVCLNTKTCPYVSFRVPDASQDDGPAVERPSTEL", "conditions": "concentrations up to 100 μM; cited from earlier work"}, "[12]": {"conditions": "mice, oral; cited from earlier work"}, "[13]": {"test": "Morris water maze (preclinical)", "format": "in vivo", "conditions": "preclinical study"}, "[14]": {"test": "Object recognition test (preclinical)", "format": "in vivo", "conditions": "preclinical stage"}, "[15]": {"conditions": "rats, oral; cited from earlier work"}, "[16]": {"conditions": "guinea-pigs, cited from earlier work"}, "[17]": {"conditions": "species not given; follows mice and rats; cited from earlier work"}, "[18]": {"system": "γ-secretase", "conditions": "cited from earlier work", "remark": "listed apart in the source"}},
  "note": "pIC50: −log10 of the molar value. Where two headings read alike, the source gives them in different places.",
  "data": [
    {"smiles": "CC(C)[C@H](O)C(=O)N[C@@H](C)C(=O)N[C@@H]1C(=O)N(C)CCc2ccccc21", "note": "[semagacestat]", "values": [
      {"measurement": "cognition and ability to complete activities of daily living versus placebo", "setting": "[1]; interim analysis of two Phase 3 trials", "value": "worsened over time to a statistically significantly higher rate"},
      {"measurement": "rate of skin cancer compared to placebo", "setting": "[1]; two 21-month Phase 3 trials, more than 2,600 AD patients", "value": "increased rate of skin cancer"},
      {"measurement": "brain and CSF levels of Aβ42 peptide", "setting": "[2]; brain and CSF", "value": "increase"},
      {"measurement": "brain level of C-terminal fragment of APP (CTFβ or C99)", "setting": "[2]; brain", "value": "accumulation"},
      {"measurement": "dendritic spine density", "setting": "[3]", "value": "decrease"}
    ]},
    {"smiles": "O=C(O)C1(c2ccc(-c3ccc(Cl)c(Cl)c3)c(F)c2)CC1", "note": "[CHF 5074, 1-(3′,4′-dichloro-2-fluorobiphenyl-4-yl)cyclopropanecarboxylic acid]", "values": [
      {"measurement": "pIC50", "setting": "[4]", "value": 5.44},
      {"measurement": "absorbed by oral route", "setting": "[5]; oral", "value": "80-100%"},
      {"measurement": "plasma elimination t1/2", "setting": "[5]", "value": "≈ 24 hours"},
      {"measurement": "expression profile of several NICD-responsive genes", "setting": "[6]", "value": "does not alter"},
      {"measurement": "fear conditioning performance", "setting": "[7]", "value": "significantly improved"},
      {"measurement": "tolerability", "setting": "[8]; 60 mg/kg/day, prolonged treatment for 4-9 months, mice", "value": "well tolerated"},
      {"measurement": "neuropathological and behavioral activity", "setting": "[8]; oral doses of 60 mg/kg/day", "value": "active from neuropathological and behavioral points of view"},
      {"measurement": "inhibitory activity on COX-2", "setting": "[9]", "value": "does not display inhibitory activity"},
      {"measurement": "effects on Notch intracellular cleavage", "setting": "[10]", "value": "no effects were observed"},
      {"measurement": "inhibitory activity on COX-1", "setting": "[11]", "value": "does not display inhibitory activity"},
      {"measurement": "absorbed orally", "setting": "[12]", "value": 74, "unit": "%"},
      {"measurement": "Morris water maze performance", "setting": "[13]", "value": "marginal effects"},
      {"measurement": "object recognition test performance", "setting": "[14]", "value": "positive effects"},
      {"measurement": "absorbed orally", "setting": "[15]", "value": 50, "unit": "%"},
      {"measurement": "plasma elimination half-life t1/2", "setting": "[16]; after oral administration", "value": "≈ 30 hours"},
      {"measurement": "brain penetration", "setting": "[16]", "value": "3-9%"},
      {"measurement": "brain levels as % of corresponding plasma concentrations", "setting": "[17]", "value": "3-14%"}
    ]},
    {"smiles": "CSc1ccc(/C=C2/C(C)=C(CC(=O)O)c3cc(F)ccc32)cc1", "note": "[sulindac sulfide]", "values": [
      {"measurement": "formation of Aβ38", "setting": "[18]", "value": "increase"},
      {"measurement": "production of Aβ42", "setting": "[18]", "value": "lower"}
    ]},
    {"smiles": "COc1ccc2c(c1)c(CC(=O)O)c(C)n2C(=O)c1ccc(Cl)cc1", "note": "[indomethacin]", "values": [
      {"measurement": "formation of Aβ38", "setting": "[18]", "value": "increase"},
      {"measurement": "production of Aβ42", "setting": "[18]", "value": "lower"}
    ]},
    {"smiles": "CC(C(=O)O)c1ccc(-c2ccccc2)c(F)c1", "note": "(stereo not drawn) [flurbiprofen]", "values": [
      {"measurement": "formation of Aβ38", "setting": "[18]", "value": "increase"},
      {"measurement": "production of Aβ42", "setting": "[18]", "value": "lower"}
    ]},
    {"smiles": "CC(C)Cc1ccc(C(C)C(=O)O)cc1", "note": "(stereo not drawn) [ibuprofen]", "values": [
      {"measurement": "formation of Aβ38", "setting": "[18]", "value": "increase"},
      {"measurement": "production of Aβ42", "setting": "[18]", "value": "lower"}
    ]}
  ]
}
